Values joined by “and” are separate entries in the source; they are usually repeats but may differ in a detail not shown here. Equal values may be shown once. Read-outs that look alike come from different tables or passages of the source.
What was measured:
hMetAP2 = target: T1, hMetAP2 (Homo sapiens, UniProt P50579); test: MetAP enzymatic assay, hMetAP2; format: biochemical; settings: Co^2+ versus Mn^2+
T1 construct: made in house

HUVEC [1] = test: HUVEC proliferation, [3H]-thymidine incorporation assay; format: cell-based, human; settings: Homo sapiens, HUVEC
Procedure: (§1) HCC1954 cells were grown in RPMI1640 containing 10% FBS. HUVEC were grown using the EGM-2 bullet kit (Cambrex) as per manufacturer's instructions. The cells were maintained in a humidified incubator adjusted to 5% CO2. For drug screening, 10 mM stock solutions of Johns Hopkins Drug Library were arrayed in 96-well plates and screened at a final concentration of 10 μM. The cell growth was determined using a [^3H]-thymidine incorporation assay. Cells (typically 5,000 cells/well) were seeded in 96-well plates containing 0.2 ml of growth media and allowed to adhere for 24 h. The cells were then treated with drugs for 24 h. Cells were pulsed with 1 μCi [^3H]-thymidine (MP Biomedicals, 6.7 Ci mmol^−1) for 8 h and harvested, upon trypsin treatment, onto glass fiber filters (Wallac, Turku, Finland), from which ^3H counts were determined using a Perkin Elmer MicroBeta plate reader.

[2] = system: breast cancer cells as well as human umbilical vein endothelial cells (HUVECs); test: Cell proliferation assay, breast cancer cells and HUVECs; format: cell-based; settings: Homo sapiens, HUVEC, read-out: IC50 of proliferation, all the cell types
Procedure: Cell proliferation assay was performed using several different kinds of breast cancer cells as well as human umbilical vein endothelial cells (HUVECs). […].
as §1

[3] = system: Saccharomyces cerevisiae strain BY4743; test: Yeast growth assay (wild type, map1Δ, map2Δ); format: cell-based; settings: drug on paper disc
Text: Saccharomyces cerevisiae strain BY4743 (MATa/α his3Δ1/his3Δ1 leu2Δ0/leu2Δ0 lys2Δ0/LYS2) and its isogenic haploid derivatives for MetAP1 (map1Δ) and MetAP2 (map2Δ) deletion mutants were used for yeast growth assays. Drugs dissolved in DMSO were spotted onto sterile filter disks and dried before experiments. Exponentially growing yeast strains were mixed with top agar and plated on YPD (1% yeast extract/2% peptone/2% glucose) plates. The filter disks were then placed on the YPD plates containing yeasts and the incubation was continued for 48 h at 30° C.

[4] = system: N-terminal methionine processing of 14-3-3γ by hMetAP2; test: N-terminal methionine processing of 14-3-3γ in HUVEC (Western blot); format: cell-based, human
Procedure: 14-3-3γ is known as a substrate of eukaryotic MetAPs and the inhibition of either isotype of MetAPs was reported to increase the N-terminal methionyl form of the protein.
Cells were lysed by adding 1 volume of 2× Laemmli buffer and were then boiled for 5 min. The samples were separated by SDS-PAGE and transferred to nitrocellulose membrane (Bio-Rad).

p53 and p21 mRNA = test: RT-PCR of p53 and p21 mRNA in HUVEC; format: cell-based, human; settings: time-dependent
Procedure: Total RNA from cells was isolated by Trizol reagent (Invitrogen) according to manufacturer's instruction. The RNA was then reverse transcribed using Superscript III (Invitrogen) and the standard PCR procedure was conducted using specific primer sets for p53 and p21 as following; 5′-[…]-3′ (forward) and 5′-[…]-3′ (reverse) for p53, 5′-[…]-3′ (forward) and 5′-[…]-3′ (reverse) for p21. RT-PCR analysis of GAPDH was used as an internal control for normalization.

HUVEC [5] = test: Senescence associated-β-galactosidase (SA-β-gal) staining in HUVEC; format: cell-based, human
Procedure: Cells in 6-well plates were washed with PBS and fixed with 3% paraformaldehyde. After washing with PBS, the cells were incubated for 24 h at 37° C. (without CO2, protected from light) in freshly prepared SA-β-gal staining solution containing 1 mg/ml 5-bromo-4-chloro-3-indolyl β-D-galactopyranoside (X-gal), 5 mM potassium ferrocyanide, 5 mM potassium ferricyanide, 150 mM NaCl, 2 mM MgCl2 and 40 mM citric acid, titrated with NaH2PO4 to pH 6.0. SA-β-gal solution was then removed and the cells were washed with PBS. The stained cells were observed under a microscope.

HUVEC [6] = test: Endothelial cell tube formation assay; format: cell-based, human; settings: Matrigel; EX527 1 μM, TNP470 10 nM
Procedure: HUVEC were seeded on a 96-well plate (2×10^4 cells/well) coated with Matrigel. The cells were then incubated for 16˜18 h in a humidified 5% CO2 incubator at 37° C. The cells were washed carefully with PBS once and Calcein-AM solution in PBS was then added to a final concentration of 2 μM. After incubation for an additional 30 min, the cells were washed carefully with PBS and observed under a fluorescence microscope (485 nm excitation/520 nm emission). The tube formed was quantified using AngioQuant v1.33 (The MathWorks).

SirT1 = target: T2, SirT1 (Homo sapiens, UniProt Q96EB6); test: biochemical; settings: SirT1 IC50, recombinant human sirtuin, fluorogenic substrate
T2 sequence (Q96EB6 1-747): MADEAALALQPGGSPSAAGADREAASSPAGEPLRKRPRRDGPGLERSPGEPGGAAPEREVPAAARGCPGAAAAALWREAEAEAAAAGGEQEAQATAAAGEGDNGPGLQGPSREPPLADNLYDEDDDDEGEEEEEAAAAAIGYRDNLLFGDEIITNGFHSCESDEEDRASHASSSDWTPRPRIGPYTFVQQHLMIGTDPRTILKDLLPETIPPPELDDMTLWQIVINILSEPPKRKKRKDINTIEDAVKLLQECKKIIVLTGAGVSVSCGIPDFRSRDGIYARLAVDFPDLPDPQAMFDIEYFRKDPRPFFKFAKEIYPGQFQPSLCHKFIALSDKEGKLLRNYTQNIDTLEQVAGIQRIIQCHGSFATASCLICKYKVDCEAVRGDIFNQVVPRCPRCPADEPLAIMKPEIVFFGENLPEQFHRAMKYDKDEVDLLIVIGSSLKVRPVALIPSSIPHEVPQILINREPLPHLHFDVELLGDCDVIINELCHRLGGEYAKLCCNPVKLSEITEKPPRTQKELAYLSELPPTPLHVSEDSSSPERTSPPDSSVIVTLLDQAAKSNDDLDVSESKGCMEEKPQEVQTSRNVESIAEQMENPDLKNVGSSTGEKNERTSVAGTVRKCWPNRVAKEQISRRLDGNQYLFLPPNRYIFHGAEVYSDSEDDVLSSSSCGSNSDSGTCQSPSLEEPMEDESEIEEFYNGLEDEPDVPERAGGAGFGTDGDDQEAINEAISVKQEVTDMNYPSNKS
Procedure: The sirtuin fluorometric assay kits were obtained from Biomol. The assay was conducted according to the manufacturer's instruction. One unit of SirT1 was used per reaction. For SirT2 and SirT3, 2 units were used for the assay.

T1 sequence (P50579 whole entry): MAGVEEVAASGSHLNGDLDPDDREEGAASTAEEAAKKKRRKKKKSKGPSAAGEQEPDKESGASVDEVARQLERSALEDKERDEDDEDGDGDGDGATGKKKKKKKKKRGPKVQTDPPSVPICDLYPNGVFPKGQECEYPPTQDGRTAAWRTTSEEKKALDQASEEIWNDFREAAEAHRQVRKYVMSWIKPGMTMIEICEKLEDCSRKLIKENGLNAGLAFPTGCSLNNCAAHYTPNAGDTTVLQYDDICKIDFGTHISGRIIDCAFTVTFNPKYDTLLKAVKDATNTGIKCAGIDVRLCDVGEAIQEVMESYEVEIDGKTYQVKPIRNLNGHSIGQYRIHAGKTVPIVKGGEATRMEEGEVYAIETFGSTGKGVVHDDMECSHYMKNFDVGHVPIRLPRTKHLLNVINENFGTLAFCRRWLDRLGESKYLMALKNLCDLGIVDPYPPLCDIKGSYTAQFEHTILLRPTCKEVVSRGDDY

**Q.** Which results are given for `O=[N+]([O-])c1ccc(O)c2ncccc12` [Entry 1c, nitroxoline]?
**A.** potency on MetAP-2 with Co^2+ lower than with Mn^2+ (hMetAP2): 25 fold; IC50 (HUVEC [1]; read-out: Selectivity HUVEC IC50): 1.98 µM; IC50 (HUVEC [1]; Table 4, read-out: HUVEC IC50): 1.98 µM; IC50 [2]: 2 to 5 µM; growth of MetAP-1 deletion mutant (map1Δ) ([3]; map1Δ): significantly inhibited; growth of MetAP-2 deletion mutant ([3]; map2Δ): did not affect the growth; growth of wild-type yeast ([3]; wild type): did not inhibit the yeast growth; N-terminal methioninylated 14-3-3γ level ([4]; 24 h): dose-dependently increased; inhibition at 5 µM ([4]; Homo sapiens, read-out: inhibition of the processing of 14-3-3γ compared with hMetAP2 siRNA): ~80%; p21 mRNA level (p53 and p21 mRNA): increased; p53 mRNA level (p53 and p21 mRNA): decreased; premature senescence in HUVEC (HUVEC [5]; 72 h, valproic acid 0.1 mM, TNP-470 20 nM): induced premature senescence; reversibility of senescence (HUVEC [5]; 72 h treatment, then fresh media for an additional 48 h): remained senescent; HUVEC tube formation (HUVEC [6]): inhibited; IC50 (SirT1): 8 µM and 8.5 µM

From patent US8729097B2, “Quinoline compounds as inhibitors of angiogenesis, human methionine aminopeptidase, and SIRT1, and methods of treating disorders” (The Johns Hopkins University, priority 2008, dated 2014)
